Results on 15 compounds are retold here after patent publication US20230183219A1, “CONDENSED SUBSTITUTED HYDROPYRROLES AS ANTAGONISTS OF THE MUSCARINIC ACETYLCHOLINE RECEPTOR M4” (Vanderbilt University, priority 2020, published 2023).

The assay has as its target T1, Human M4 (Homo sapiens, UniProt P08173).
T1 construct: Human or rat M4 cDNA, along with the chimeric G protein Gqi5, were transfected into Chinese hamster ovary (CHO-K1) cells; expressed in transfected cells; host or cells: CHO-K1 (Chinese hamster ovary, ATCC), stably co-expressing Gqi5
T1 sequence (P08173 1-479): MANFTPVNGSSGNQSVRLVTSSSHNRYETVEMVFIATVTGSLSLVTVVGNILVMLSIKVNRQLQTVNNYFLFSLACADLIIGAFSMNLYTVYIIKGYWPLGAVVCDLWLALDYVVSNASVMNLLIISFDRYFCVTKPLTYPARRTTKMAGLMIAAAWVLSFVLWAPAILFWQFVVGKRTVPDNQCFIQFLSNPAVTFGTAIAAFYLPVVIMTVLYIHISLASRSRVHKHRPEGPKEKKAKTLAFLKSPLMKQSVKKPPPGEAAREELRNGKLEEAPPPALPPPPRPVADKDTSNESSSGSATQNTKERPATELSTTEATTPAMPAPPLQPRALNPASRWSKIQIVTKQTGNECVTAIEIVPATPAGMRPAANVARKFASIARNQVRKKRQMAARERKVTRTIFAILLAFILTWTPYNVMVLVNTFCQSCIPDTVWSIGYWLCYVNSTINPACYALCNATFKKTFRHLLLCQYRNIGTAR
Briefly: mAChR M4 cell-based functional assay (calcium flux, decrease of EC80 acetylcholine response). The conditions noted are these: for remaining activity at 30 µM: % ACh maximum at 30 μM, read-out: Human M4 Emin; for IC50: M4/Gqi5/CHO-K1 cells, decrease of response to EC80 acetylcholine. Here is the method: Human or rat M4 cDNA, along with the chimeric G protein Gqi5, were transfected into Chinese hamster ovary (CHO-K1) cells purchased from the American Type Culture Collection using Lipofectamine2000. M4/Gqi5/CHO cells were grown in Ham's F-12 medium containing 10% heat-inactivated fetal bovine serum (FBS), 20 mM HEPES, 500 μg/mL G418 sulfate, and 200 μg/mL Hygromycin B.
For high throughput measurement of agonist-evoked increases in intracellular calcium, CHO-K1 cells stably expressing muscarinic receptors were plated in growth medium lacking G418 and hygromycin at 15,000 cells/20 μL/well in Greiner 384-well black-walled, tissue culture (TC)-treated, clear-bottom plates (VWR). Cells were incubated overnight at 37° C. and 5% CO2. The next day, cells were washed using an ELX 405 (BioTek) with assay buffer; the final volume was then aspirated to 20 μL. Next, 20 μL of a 2.3 μM stock of Fluo-4/acetoxymethyl ester (Invitrogen, Carlsbad, Calif.), prepared as a 2.3 mM stock in DMSO and mixed in a 1:1 ratio with 10% (w/v) Pluronic F-127 and diluted in assay buffer, was added to the wells and the cell plates were incubated for 50 min at 37° C. and 5% CO2. Dye was removed by washing with the ELX 405 and the final volume was aspirated to 20 μL. Compound master plates were formatted in a 10 point concentration-response curve (CRC) format (1:3 dilutions) in 100% DMSO with a starting concentration of 10 or 1 mM using a BRAVO liquid handler (Agilent). Test compound CRCs were then transferred to daughter plates (240 nL) using the Echo acoustic plate reformatter (Labcyte, Sunnyvale, Calif.) and then diluted into assay buffer (40 μL) to a 2×stock using a Thermo Fisher Combi (Thermo Fisher Scientific, Waltham, Mass.).
Calcium flux was measured using the Functional Drug Screening System (FDSS) 6000 or 7000 (Hamamatsu Corporation, Tokyo, Japan) as an increase in the fluorescent static ratio. Compounds were applied to cells (20 μL, 2×) using the automated system of the FDSS at 2 seconds into the protocol and the data were collected at 1 Hz. At 143 s, 10 μL of an EC20 concentration of the muscarinic receptor agonist acetylcholine was added (5×), followed by the addition of 12 μL of an EC80 concentration of acetylcholine at the 268 s time point (5×). Agonist activity was analyzed as a concentration-dependent increase in calcium mobilization upon compound addition. Positive allosteric modulator activity was analyzed as a concentration-dependent increase in the EC20 acetylcholine response. Antagonist activity was analyzed as a concentration-dependent decrease in the EC80 acetylcholine response; for the purposes of the tables herein, an IC50 (inhibitory concentration 50) was calculated as a concentration-dependent decrease of the response elicited by an EC80 concentration of acetylcholine. Concentration-response curves were generated using a four-parameter logistical equation in XLFit curve fitting software (IDBS, Bridgewater, N.J.) for Excel (Microsoft, Redmond, Wash.) or Prism (GraphPad Software, Inc., San Diego, Calif.) or the Dotmatics software platform (Dotmatics, Bishop's Stortford, UK).
Compounds were synthesized as described above. Activity (IC50 and Emin) was determined in the mAChR M4 cell-based functional assay as described above and the data are shown in Table 2.
A general note: Calcium assays in cells follow changes in intracellular calcium, usually with a dye or a luminescent sensor.

In general, IC50 refers to the concentration that inhibits the measured activity by half. Turning to `Cc1ccc(F)cc1-c1cc(C(F)(F)F)c(N[C@H]2C[C@@H]3CN(C[C@H]4CCOC4)C[C@@H]3C2)nn1` [Example 31, (3aR,5s,6aS)-N-(6-(5-fluoro-2-methylphenyl)-4-(trifluoromethyl)pyridazin-3-yl)-2-(((R)-tetrahydrofuran-3-yl)methyl)octahydro-cyclopenta[c]pyrrol-5-amine], the remaining activity at 30 µM turned out to be 5% and the IC50 amounted to 130 nM.

For `Cn1cc2cc(-c3cc(C(F)(F)F)c(N[C@H]4C[C@@H]5CN(C[C@@H]6CCOC6)C[C@@H]5C4)nn3)ccc2n1` [Example 32, (3aR,5s,6aS)-N-(6-(2-methyl-2H-indazol-5-yl)-4-(trifluoro-methyl)pyridazin-3-yl)-2-(((S)-tetrahydrofuran-3-yl)methyl)octahydro-cyclopenta[c]pyrrol-5-amine], the remaining activity at 30 µM was determined as 6% and the IC50 was 162 nM.

Turning to `Cn1cc2cc(-c3cc(C(F)(F)F)c(N[C@H]4C[C@@H]5CN(C[C@H]6CCOC6)C[C@@H]5C4)nn3)ccc2n1` [Example 33, (3aR,5s,6aS)-N-(6-(2-methyl-2H-indazol-5-yl)-4-(trifluoro-methyl)pyridazin-3-yl)-2-(((R)-tetrahydrofuran-3-yl)methyl)octahydro-cyclopenta[c]pyrrol-5-amine], the remaining activity at 30 µM was found to be 6% and the half-inhibitory concentration (IC50) was found to be 188 nM.

In the case of `Cn1cc2cc(-c3cc(C(F)(F)F)c(N[C@H]4C[C@@H]5CN(C[C@H]6COCCO6)C[C@@H]5C4)nn3)ccc2n1` [Example 34, (3aR,5s,6aS)-2-(((S)-1,4-dioxan-2-yl)methyl)-N-(6-(2-methyl-2H-indazol-5-yl)-4-(trifluoromethyl)pyridazin-3-yl)octahydro-cyclopenta[c]pyrrol-5-amine], the remaining activity at 30 µM was found to be 6% and the IC50 worked out at 32.9 nM.

With `Cn1cc2cc(-c3cc(C(F)(F)F)c(N[C@H]4C[C@@H]5CN(C[C@@H]6COCCO6)C[C@@H]5C4)nn3)ccc2n1` [Example 35, (3aR,5s,6aS)-2-(((R)-1,4-dioxan-2-yl)methyl)-N-(6-(2-methyl-2H-indazol-5-yl)-4-(trifluoromethyl)pyridazin-3-yl)octahydro-cyclopenta[c]pyrrol-5-amine], the remaining activity at 30 µM is 6% and the IC50 was 147 nM.

With `Fc1ccc(F)c(-c2cc(C(F)(F)F)c(N[C@H]3C[C@@H]4CN(CC5CCOCC5)C[C@@H]4C3)nn2)c1` [Example 38, (3aR,5s,6aS)-N-(6-(2,5-difluorophenyl)-4-(trifluoromethyl)pyridazin-3-yl)-2-((tetrahydro-2H-pyran-4-yl)methyl)octahydro-cyclopenta[c]pyrrol-5-amine], the remaining activity at 30 µM came out at 3% and the IC50 was determined as 207 nM.

In the case of `Cc1c(-c2cc(C(F)(F)F)c(N[C@H]3C[C@@H]4CN(CC5CCOCC5)C[C@@H]4C3)nn2)ccc2nn(C)cc12` [Example 39, (3aR,5s,6aS)-N-(6-(2,4-dimethyl-2H-indazol-5-yl)-4-(trifluoromethyl)pyridazin-3-yl)-2-((tetrahydro-2H-pyran-4-yl)methyl)octahydro-cyclopenta[c]pyrrol-5-amine], the remaining activity at 30 µM amounted to 2% and the IC50 was found to be 2.1 nM.

For `Cc1nn(C)c(C)c1-c1cc(C(F)(F)F)c(N[C@H]2C[C@@H]3CN(CC4CCOCC4)C[C@@H]3C2)nn1` [Example 40, (3aR,5s,6aS)-2-((tetrahydro-2H-pyran-4-yl)methyl)-N-(4-(trifluoromethyl)-6-(1,3,5-trimethyl-1H-pyrazol-4-yl)pyridazin-3-yl)octahydro-cyclopenta[c]pyrrol-5-amine], the remaining activity at 30 µM turned out to be 4% and the concentration for half-maximal inhibition (IC50) is 184 nM.

`FC(F)(F)c1ccccc1-c1cc(C(F)(F)F)c(N[C@H]2C[C@@H]3CN(CC4CCOCC4)C[C@@H]3C2)nn1` [Example 41, (3aR,5s,6aS)-2-((tetrahydro-2H-pyran-4-yl)methyl)-N-(4-(trifluoromethyl)-6-(2-(trifluoromethyl)phenyl)pyridazin-3-yl)octahydro-cyclopenta[c]pyrrol-5-amine]: the remaining activity at 30 µM is 3% and the IC50 came to 13.6 nM.

Consider `Fc1cc(F)c(-c2cc(C(F)(F)F)c(N[C@H]3C[C@@H]4CN(CC5CCOCC5)C[C@@H]4C3)nn2)cc1F` [Example 42, (3aR,5s,6aS)-2-((tetrahydro-2H-pyran-4-yl)methyl)-N-(4-(trifluoromethyl)-6-(2,4,5-trifluorophenyl)pyridazin-3-yl)octahydro-cyclopenta[c]pyrrol-5-amine], for which the remaining activity at 30 µM was 3% and the IC50 came to 237 nM.

In the case of `Fc1cc(F)c(F)c(-c2cc(C(F)(F)F)c(N[C@H]3C[C@@H]4CN(CC5CCOCC5)C[C@@H]4C3)nn2)c1` [Example 43, (3aR,5s,6aS)-2-((tetrahydro-2H-pyran-4-yl)methyl)-N-(4-(trifluoromethyl)-6-(2,3,5-trifluorophenyl)pyridazin-3-yl)octahydro-cyclopenta[c]pyrrol-5-amine], the remaining activity at 30 µM was 3% and the IC50 amounted to 290 nM.

Turning to `Cc1ccc(C)c(-c2cc(C(F)(F)F)c(N[C@H]3C[C@@H]4CN(CC5CCOCC5)C[C@@H]4C3)nn2)c1` [Example 44, (3aR,5s,6aS)-N-(6-(2,5-dimethylphenyl)-4-(trifluoromethyl)pyridazin-3-yl)-2-((tetrahydro-2H-pyran-4-yl)methyl)octahydro-cyclopenta[c]pyrrol-5-amine], the remaining activity at 30 µM was 2% and the IC50 was determined as 52.8 nM.

`Fc1ccc(C(F)(F)F)c(-c2cc(C(F)(F)F)c(N[C@H]3C[C@@H]4CN(CC5CCOCC5)C[C@@H]4C3)nn2)c1` [Example 45, (3aR,5s,6aS)-N-(6-(5-fluoro-2-(trifluoromethyl)phenyl)-4-(trifluoromethyl)pyridazin-3-yl)-2-((tetrahydro-2H-pyran-4-yl)methyl)octahydro-cyclopenta[c]pyrrol-5-amine]: the remaining activity at 30 µM worked out at 3% and the IC50 was found to be 35.3 nM.

For the compound `Cc1c(F)cc(F)cc1-c1cc(C(F)(F)F)c(N[C@H]2C[C@@H]3CN(CC4CCOCC4)C[C@@H]3C2)nn1` [Example 46, (3aR,5s,6aS)-N-(6-(3,5-difluoro-2-methylphenyl)-4-(trifluoromethyl)pyridazin-3-yl)-2-((tetrahydro-2H-pyran-4-yl)methyl)octahydro-cyclopenta[c]pyrrol-5-amine], the remaining activity at 30 µM is 4% and the IC50 came to 384 nM.

With `[2H]C([2H])([2H])OC([2H])([2H])c1ccc(F)cc1-c1cc(C(F)(F)F)c(N[C@H]2C[C@@H]3CN(CC4CCOCC4)C[C@@H]3C2)nn1` [Example 47, (3aR,5s,6aS)-N-(6-(5-fluoro-2-((methoxy-d3)methyl-d2)phenyl)-4-(trifluoromethyl)pyridazin-3-yl)-2-((tetrahydro-2H-pyran-4-yl)methyl)octahydro-cyclopenta[c]pyrrol-5-amine], the remaining activity at 30 µM was found to be 4% and the concentration for half-maximal inhibition (IC50) came out at 70.9 nM.
